The source of these data is patent publication US7294637B2 (Sepracor, Inc., priority 2000, dated 2007).

Read-outs that look alike come from different tables or passages of the source. Bounds are passed on as bounds.

One data set relates to rats and monkeys. The note with it: monkeys; cited from earlier work.
The conditions of data set [1]: rodents, ex vivo binding; cited from earlier work.
Data set [2] deals with T1, DAT (Homo sapiens, UniProt Q01959). Kind of data set: cell-based. Conditions: hDAT cell line; read-out: DA Uptake, Functional Assays (antagonism, EC50). The arrangement: expressed in transfected cells.
T1 sequence (Q01959 whole entry): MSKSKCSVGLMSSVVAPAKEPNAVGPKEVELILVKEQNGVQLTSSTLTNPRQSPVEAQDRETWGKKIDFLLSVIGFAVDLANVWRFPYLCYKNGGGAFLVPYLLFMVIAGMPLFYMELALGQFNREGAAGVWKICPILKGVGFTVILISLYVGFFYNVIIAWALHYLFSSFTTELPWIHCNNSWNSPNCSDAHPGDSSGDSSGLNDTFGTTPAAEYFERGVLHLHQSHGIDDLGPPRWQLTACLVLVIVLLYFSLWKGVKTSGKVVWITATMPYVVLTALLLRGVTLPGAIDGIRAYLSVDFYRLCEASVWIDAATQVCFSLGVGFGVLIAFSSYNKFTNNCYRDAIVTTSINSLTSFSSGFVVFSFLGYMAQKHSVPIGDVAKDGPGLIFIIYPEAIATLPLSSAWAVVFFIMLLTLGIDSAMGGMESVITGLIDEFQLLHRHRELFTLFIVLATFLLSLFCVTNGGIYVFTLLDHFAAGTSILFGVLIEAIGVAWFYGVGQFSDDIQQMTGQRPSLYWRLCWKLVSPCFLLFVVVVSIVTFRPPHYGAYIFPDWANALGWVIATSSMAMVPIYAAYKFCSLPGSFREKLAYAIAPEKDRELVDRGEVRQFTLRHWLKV
A further data set concerns the target dopamine transporter (Homo sapiens, UniProt Q01959). Kind of data set: DA uptake: displacement of dopamine ligands in vitro (methods of Gu et al.). The note with it: DA Uptake, Uptake Profile (IC50, nM), displacement of dopamine ligands in vitro.
A further data set concerns the target serotonin transporter (Homo sapiens, UniProt P31645). Kind of data set: 5-HT uptake: displacement of serotonin ligands in vitro (methods of Gu et al.). Format: binding. Conditions: 5-HT Uptake, Uptake Profile (IC50, nM).
Another data set deals with ICR derived mice. Kind of data set: In vivo evaluation of 4: acute toxic symptoms, autonomic effects and mortality after i.v. dosing. The arrangement: species or system mouse. Conditions: i.v., 5, 10, 20, and 30 mk/kg. The protocol: Compound 4 was administered i.v. to a group of 3 ICR derived male or female mice (˜22 gms) and observed for the presence of acute toxic symptoms (mortality, convulsions, tremors, muscle relaxation, sedation, etc.) and autonomic effects (diarrhea, salvation, lacrimation, vasodilation, piloerection, etc) during first 5 min (i.v).
Compound 4 was administered at doses of 5, 10, 20, and 30 mk/kg. […] After monitoring daily for 3 days, no mortality was observed.

In data set [3] the target is norepinephrine transporter (Homo sapiens, UniProt P23975). Kind of data set: NE uptake: displacement of norephinephrine ligands in vitro (methods of Galli et al.). The note with it: NE Uptake, Uptake Profile (IC50, nM). Format: binding.
norepinephrine transporter, sequence (P23975 whole entry): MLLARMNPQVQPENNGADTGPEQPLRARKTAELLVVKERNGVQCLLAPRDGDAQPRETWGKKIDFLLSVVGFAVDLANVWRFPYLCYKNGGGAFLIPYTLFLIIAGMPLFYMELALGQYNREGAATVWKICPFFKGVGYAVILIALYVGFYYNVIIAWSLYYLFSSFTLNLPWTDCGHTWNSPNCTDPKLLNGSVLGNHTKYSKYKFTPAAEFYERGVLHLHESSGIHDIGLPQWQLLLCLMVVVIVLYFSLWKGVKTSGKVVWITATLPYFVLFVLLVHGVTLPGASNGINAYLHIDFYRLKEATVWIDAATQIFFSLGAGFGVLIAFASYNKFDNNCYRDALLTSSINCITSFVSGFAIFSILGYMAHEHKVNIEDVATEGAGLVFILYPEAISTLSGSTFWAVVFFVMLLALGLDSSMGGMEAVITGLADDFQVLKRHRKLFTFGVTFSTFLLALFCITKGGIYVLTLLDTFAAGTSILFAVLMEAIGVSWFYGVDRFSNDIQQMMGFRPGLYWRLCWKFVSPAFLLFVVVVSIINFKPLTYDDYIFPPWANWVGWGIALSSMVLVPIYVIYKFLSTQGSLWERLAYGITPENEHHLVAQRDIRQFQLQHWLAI
The target of data set [4] is T1, DAT. The note with it: dosed orally, 60 mg; cited from earlier work.
Data set [5] deals with Sprague-Dawley rats. Kind of data set: Spontaneous locomotor activity in rats (Example 141). Format: in vivo, rat. The note with it: 10 mg/kg i.p. The protocol: The effect of 124 and 126 on spontaneous locomotor activity in rats was determined according to the procedures outlined by Silverman et al. (Motor Activity. In “Animal behavior in the laboratory”, Chapman and Hall eds, London, p. 79-92, 1978) and Boissier et al. (Arch. Int. Pharmacodyn. 1965, 158, 212. )
Test items and test item vehicles were administered to male Sprague-Dawley rats (n=10) as a single i.p. dose (vehicle A=10% hydroxypropyl-β-cyclodextrin in water; vehicle B=4:1 5% aqueous dextrose:PEG 400). […] Locomotor activity was determined during 20 minute periods using video image analyzers. Images recorded with video cameras were digitalized and displacements of the center of gravity of the digital image spot were tracked and analyzed. When the speed of displacement of the center of gravity of the spot was below 4.26 cm/sec, the movement was considered as inactivity. When this speed was between 4.26 and 6.75 cm/sec, the movement was considered as a small movement. When this speed was above 6.75 cm/sec, the movement was considered as a large movement. The number of occurrences, distance and duration of fast and slow movements, number of occurrences and duration of periods of inactivity and number of rears were measured.

For data set [6] the following is noted: cited from earlier work.
For data set [7] the following is noted: baboon, cited from earlier work.
For data set [8], the system named is Sprague-Dawley rats. Kind of data set: Spontaneous locomotor activity in rats, 1-24 hours (Example 223). The note with it: 10 mg/kg i.p. Format: in vivo, rat. As for the experimental part: The effect of 124 and 126 on spontaneous locomotor activity in rats was determined according to the procedures outlined by Silverman et al. (Motor Activity. In “Animal behavior in the laboratory”, Chapman and Hall eds, London, p. 79-92, 1978) and Boissier et al. (Arch. Int. Pharmacodyn. 1965, 158, 212. ) Test items and test item vehicles were administered to male Sprague-Dawley rats (n=10) as a single i.p. dose. One, three, five, eight and twenty four hours following administration, rats were placed in a plastic box 30×30 cm in a room with low light intensity (maximum 50 lux). Locomotor activity was determined during 20 minute periods using video image analyzers. Images recorded with video cameras were digitalized and displacements of the center of gravity of the digital image spot were tracked and analyzed. When the speed of displacement of the center of gravity of the spot was below 4.26 cm/sec, the movement was considered as inactivity. When this speed was between 4.26 and 6.75 cm/sec, the movement was considered as a small movement. When this speed was above 6.75 cm/sec, the movement was considered as a large movement. The number of occurrences, distance and duration of fast and slow movements, number of occurrences and duration of periods of inactivity and number of rears were measured.

serotonin transporter, sequence (P31645 whole entry): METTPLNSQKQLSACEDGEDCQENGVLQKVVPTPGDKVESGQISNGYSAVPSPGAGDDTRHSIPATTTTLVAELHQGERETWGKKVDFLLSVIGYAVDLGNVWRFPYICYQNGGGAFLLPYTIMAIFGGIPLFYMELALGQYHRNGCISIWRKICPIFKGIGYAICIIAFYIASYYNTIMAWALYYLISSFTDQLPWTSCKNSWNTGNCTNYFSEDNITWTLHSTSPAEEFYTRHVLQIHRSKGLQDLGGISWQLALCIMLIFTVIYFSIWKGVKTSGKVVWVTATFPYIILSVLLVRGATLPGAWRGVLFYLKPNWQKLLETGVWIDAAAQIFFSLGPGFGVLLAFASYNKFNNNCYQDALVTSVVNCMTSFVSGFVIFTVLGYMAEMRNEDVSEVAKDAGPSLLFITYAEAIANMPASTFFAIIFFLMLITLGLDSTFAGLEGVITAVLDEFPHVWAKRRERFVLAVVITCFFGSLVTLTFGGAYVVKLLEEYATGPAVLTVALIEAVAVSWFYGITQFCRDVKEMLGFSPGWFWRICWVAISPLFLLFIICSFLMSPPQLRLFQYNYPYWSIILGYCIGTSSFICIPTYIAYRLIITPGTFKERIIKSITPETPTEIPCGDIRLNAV
dopamine transporter, sequence (Q01959 whole entry): as the sequence (Q01959 whole entry) above

Turning to `CCC(=O)[C@H]1[C@@H](c2ccc(C)cc2)C[C@@H]2CC[C@H]1N2C` [PPT, 2β-propanoyl-3β-(4-tolyl)-tropane], in the data set with rats and monkeys, the addictiveness result is on record as “not addictive” and the “decrease of self-administered cocaine intake” value is 70%. In addition, the “time of onset after administration” value in [1] is “ca. 30 minutes”.
In the case of `Clc1ccc(C2(CN3CCCC(COc4ccccc4)C3)CCC2)cc1` (stereo not shown) [compound 4], the EC50 at DAT [2] was under 1 µM. Besides, the IC50 on dopamine transporter was under 1000 nM; on serotonin transporter, over 1000 nM; in data set [3], over 1000 nM. The “change in autonomic signs of behavior” value with ICR derived mice is “No obvious change”. The mortality result with ICR derived mice (monitored daily for 3 days) is listed as “no mortality”.
On to `COC(=O)C(c1ccccc1)C1CCCCN1` (stereo not shown) [methylphenidate, reference compound], for which, on DAT [4], the DAT occupancy is recorded as 70-72%. The ““high” in subjects” value at DAT [4] is “no “high” was observed”. In addition, the “Large Movement Occurrences” value is reported as 974.3 ± 125.5 ^ in the data set on Sprague-Dawley rats [5] (20 min); 423.9 ± 75.9 in the data set with Sprague-Dawley rats [5] (60 min); 191.8 ± 37.1 ^ in the data set with Sprague-Dawley rats [5] (120 min); 958 ± 118 ^ in the data set with Sprague-Dawley rats [8] (1 hour); 504 ± 114 ^ in the data set with Sprague-Dawley rats [8] (3 hours); 196 ± 62^ with Sprague-Dawley rats [8] (5 hours). In addition, the entries for the “Large Movement Occurrences” value in the data set on Sprague-Dawley rats [8] (8 hours) and in the data set on Sprague-Dawley rats [8] (24 hours) were 71 ± 20 ^ and 335 ± 68^, respectively. The “Small Movement Occurrences” value is listed as 1537.0 ± 97.3 ^ in the data set on Sprague-Dawley rats [5] (20 min); 992.0 ± 126.7 ^ in the data set on Sprague-Dawley rats [5] (60 min); 555.0 ± 87.0 with Sprague-Dawley rats [5] (120 min); 1595 ± 83 ^ in the data set on Sprague-Dawley rats [8] (1 hour); 1072 ± 122^ with Sprague-Dawley rats [8] (3 hours); 612 ± 108 ^ in the data set with Sprague-Dawley rats [8] (5 hours). In addition, the “Small Movement Occurrences” value is given as 358 ± 65^ with Sprague-Dawley rats [8] (8 hours) and 790 ± 81^ in the data set with Sprague-Dawley rats [8] (24 hours). Further, in data set [6] (dosed intravenously), the “time of peak uptake into the brain” value was 8 to 10 min. Also, the “half-life in the brain” value in data set [6] (intravenous) is 1.5 h. For the same compound, the “time to peak concentration in brain” value in [7] (intravenous) is 8 to 10 min; in data set [7] (orally dosed) it was 60 min.

Usually EC50 stands for the concentration that produces a half-maximal response. By IC50 is commonly meant the concentration at which inhibition is half-maximal. The low end stands for higher potency, the high end for lower potency.
